Assay results: PMC11503492, “Activity-Based DNA-Encoded Library Screening for Selective Inhibitors of Eukaryotic Translation” (ACS Central Science, 2024)

Legend:
[1] = tested on: PCSK9[1:33]-GFP translation; test: Wheat germ lysate (WG) IVTT microplate activity assay, PCSK9[1:33]-GFP template; format: biochemical; settings: WG IVTT; for IC50: PCSK9[1:33]-GFP template, triplicate, ± standard deviation of the mean
Text: (§1) A commercially available wheat germ lysate (WG) IVTT system was employed to assay translation inhibition. Translation activity was detected via a GFP reporter, and the assay was miniaturized to picoliter-scale microfluidic droplets (Figure 1A,B). […] PCSK9 and RPL27 were truncated to the first 33 and 32 amino acids, respectively (PCSK9[1:33] and RPL27[1:32]). The sequences contain distinct PF846 stall sites and were both fused to a GFP reporter. The GFP reporter and a frameshift mutant of PCSK9[1:33] (PCSK9-FS[1:33]), which mutates the nascent chain sequence while maintaining a nearly identical mRNA sequence, were included as negative controls.[13] […] Sequence sensitivity was further confirmed by an N-terminal deletion series of PCSK9[1:33]-GFP; deletion of N-terminal residues increasingly ablated PCSK9[1:33]-GFP translation sensitivity to PF846 (Figure 1D). The WG IVTT assay was miniaturized using a previously described microfluidic circuit modified for longer incubation times (Figure S1)[27] using PF846 as a positive control compound, and assay statistical quality was calculated (Z′=0.7) (Figure 1E). To confirm detection of translation inhibition from library beads, hygromycin B, a nonselective aminoglycoside translation inhibitor, was coupled to beads displaying a photocleavable linker (PC-HygB). UV irradiation releases hygromycin from the bead, allowing it to interact with the WG IVTT assay in the droplet. PC-HygB bead photocleavage supernatant inhibited PCSK9[1:33]-GFP translation both in a microplate assay and in microfluidic droplets (Figure 1F,G, S2). Assay statistical quality using PC-HygB positive control beads was similarly calculated (Z′ = 0.75, Figure 1H). […]
(§2) 436 Microplate IVTT Assays
(§3) 437 Wheat germ lysate IVTT plate assays were prepared as 5 µL reactions. Wheat germ lysate
(§4) 438 (3 µL) was added to test compound or vehicle control (1 µL) in a 384-well black microplate
(§5) 439 and the reaction was incubated (10 min, RT). Template (1 µL) was added and reaction
(§6) 440 progress was immediately monitored (λex = 480 nm, λem = 530 nm, 27 °C, 2 h). Rela-
(§7) 441 tive activity was calculated using the slope of fluorescence increase over time (at 15–30
(§8) 442 min post reaction initiation) for compound samples relative to that of the DMSO vehicle
443 control. […]

[2] = tested on: PCSK9-FS[1:33]-GFP translation; test: WG IVTT microplate activity assay, PCSK9-FS[1:33]-GFP frameshift counter template; format: biochemical, wheat germ; settings: for IC50: PCSK9-FS[1:33]-GFP template, triplicate, undetectable IC50 marked >300; for activity on PCSK9-FS[1:33]-GFP translation (in words): frameshift control
Text: as §1, §2, §3, §4, §5, §6, §7, §8
443 control. All microplate experiments contained 25 ng/µL plasmid, except for assays with
445 respectively. HeLa lysate IVTT plate assays were prepared as 5.5 µL reactions. […]

[3] = tested on: PCSK9[1:33]-GFP translation; test: Microfluidic activity-based DEL screen in WG IVTT droplets, PCSK9[1:33]-GFP, hit k class by sequencing; format: biochemical, wheat germ; settings: number of times hit structure observed on distinct beads, summed across PCSK9[1:33]-GFP screens; *** p < 0.001, NS not significant
Description: (§9) The validated PF846-inspired library was screened to discover novel translation inhibitors. DEL beads were encapsulated in microfluidic droplets of WG IVTT and irradiated with UV in flow to liberate DEL members into the droplets. The photodosed droplets were incubated and sorted based on fluorescence.[25] PCSK9[1:33]-GFP was chosen as a proof-of-concept target, and PCSK9-FS[1:33]-GFP was used as a counter screen target to identify nonselective compounds. PC-HygB were mixed with DEL beads and screened in the microfluidic device for inhibitors of translation. […] Droplet generation, bead introduction, and library and control bead hit rate were uniform during the screen (Figure 3, bottom).
(§10) Hit collection DNA tags from the PCSK9[1:33]-GFP and PCSK9-FS[1:33]-GFP screens were sequenced to deduce the structures of molecules that inhibited PCSK9[1:33]- or PCSK9-FS[1:33]-GFP translation. Hit structure k class, the number of times a given hit structure is observed on distinct beads,[31] was summed across screens and visualized as a heat map (Figure 4A). […] The combined hit sets for the two templates contained 121 unique hits with k ≥ 17 across the two screening campaigns. The most frequently observed cycle 1 starter BBs were 1 and 2, which share an 8-methylisoquinoline moiety, but differ in the vector for cycle 2 carboxylic acid connection, and 3, which contains an N-methylazaindole moiety. The most frequently identified cycle 2 tails included carboxylic acids 4–7. […] Substituted pyrazole 6 and pyridyl-benzimidazole 7 also appeared frequently with the aforementioned starters. There were 5 hits that appeared with high k class in both PCSK9[1:33]-GFP and PCSK9[1:33]-FS-GFP screening campaigns.
(§11) 319 the droplet experiment to homogenize the bead suspension. Syringes were connected to
(§12) 320 fluidic inputs with microbore Tygon tubing (0.01” x 0.03” IC × OD). Droplet generation oil
(§13) 321 (OIL1) was 1% picosurf in HFE. Spacing (OIL2) and pinning (OIL3) oils were neat HFE.
(§14) 322 Assay reagents were driven by displacement syringe pumps (Legato 100, KD Scientific,
(§15) 323 Holliston, MA) through the circuit. OIL2 and OIL3 were initially flowed (22 µL/min and
(§16) 324 12 µL/min, respectively) and hit and waste shunt tubing were clamped to backfill the
(§17) 325 circuit. Once the incubator was filled with oil, the hit and waste tubing were unclamped
(§18) 326 and back shunts were clamped. AQ1, AQ2, and OIL1 flows were initiated (960 nL/min,
(§19) 327 640 nL/min, and 1200 nL/min, respectively) and held constant during the screen. Once
(§20) 328 droplet generation equilibrated (∼10 min), the main shunt was clamped and droplets
(§21) 329 started to fill the incubator. When droplets filled the incubator and entered the sorting
(§22) 330 region, data acquisition and screening was initiated.
(§23) 331 The custom confocal LIF detection setup and LabView code were previously described.S3
(§24) 332 Briefly, photon counting PMTs (H7828, Hamamatsu, Middlesex, NJ) were used to detect
(§25) 333 droplet fluorescence emission using a custom two-channel (520 and 570 nm) confocal mi-
(§26) 334 croscope with laser excitation (488 nm, 20 mW, OBIS-488 20LS, Coherent Inc., Santa Clara,
(§27) 335 CA). A data acquisition board (DAQ, NI, USB-6341, National Instruments) was used to
(§28) 336 digitize PMT signal, which was binned into counts, and in-house LabView code was used
(§29) 337 to control acquisition and execute droplet sorting decisions. Signal was smoothed in real-
(§30) 338 time using median-filter smoothing (width = 3). Droplets were identified by the 570 nm
(§31) 339 channel signal and the maximum signal in the 520 nm channel (max = countsn-1 when
(§32) 340 countsn <countsn-1) was set as the droplet peak value. A roaming sort threshold was
(§33) 342 the 520 nm channel. The threshold was calculated as µ - 5σ, where µ andσ were the mean
(§34) 343 and standard deviation of the previous 300 droplets’ fluorescence values, respectively. Hit
(§35) 344 droplets were not included in the calculation of droplet mean and standard deviation. A […]

[4] = tested on: PCSK9-FS[1:33]-GFP translation; test: Microfluidic activity-based DEL counter screen in WG IVTT droplets, PCSK9-FS[1:33]-GFP, hit k class by sequencing; format: biochemical, wheat germ; settings: number of times hit structure observed on distinct beads, summed across PCSK9-FS[1:33]-GFP screens; *** p < 0.001, NS not significant
Description: as §9, §10, §11, §12, §13, §14, §15, §16, §17, §18, §19, §20, §21, §22, §23, §24, §25, §26, §27, §28, §29, §30, §31, §32, §33, §34, §35

Row | SMILES | inhibition of PCSK9[1:33]-GFP translation (in words) [1] | IC50 [1] | IC50 [2] | activity on PCSK9-FS[1:33]-GFP translation (in words) [2] | k class PCSK9 [3] | k class PCSK9-FS [4]
1 | Cc1cccc2ccnc(N(C(=O)[C@H]3CCCN(C(=O)c4ccc(-c5cnco5)cc4)C3)[C@@H]3CCCNC3)c12 [Compound 10, (S)-N-(8-methylisoquinolin-1-yl)-1-(4-(oxazol-5-yl)benzoyl)-N-((R)-piperidin-3-yl)piperidine-3-carboxamide] | modestly inhibited | 6 ± 0.2 µM | > 300 µM | minimal activity | 34 | 3
2 | Cc1c(C(=O)N2CCC(C(=O)N(c3nccc4cccc(C)c34)[C@@H]3CCCNC3)CC2)[nH]c2c1C(=O)CCC2 [Compound 11] | similarly active on both templates | 19.1 ± 0.5 µM | 31 ± 1 µM | similarly active on both templates | 38 | 10
3 | Cc1cccc2ccnc(N(C(=O)C3CCN(C(=O)C#CC4(O)CCOCC4)CC3)[C@@H]3CCCNC3)c12 [Compound 12] | similarly active on both templates | 44 ± 4 µM | 27 ± 2 µM | similarly active on both templates | 31 | 3
4 | Cc1cccc2ccnc(N(C(=O)[C@H]3CCCN(C(=O)c4ccc(N5CCCC5)nc4)C3)[C@@H]3CCCNC3)c12 [Compound 13] | modestly inhibited | 11.2 ± 0.5 µM | > 300 µM | minimal activity | 39 | 4
5 | Cc1cccc2ccnc(N(C(=O)C3CCN(C(=O)c4ccc5nc(-c6ccncc6)[nH]c5c4)CC3)[C@@H]3CCCNC3)c12 [Compound 14] | similarly active on both templates | 11.4 ± 0.4 µM | 7.7 ± 0.1 µM | similarly active on both templates | 53 | 17
